Measurements from the supplement of paper PMC10307832.

Tests used:
Test in all cases: relative viability (nuclei count vs DMSO), 5 days (fraction); higher = more cells survive
Bexarotene + Linsitinib = compound: C=C(c1ccc(C(=O)O)cc1)c1cc2c(cc1C)C(C)(C)CCC2(C)C [Bexarotene] + C[C@]1(O)C[C@@H](c2nc(-c3ccc4ccc(-c5ccccc5)nc4c3)c3c(N)nccn32)C1 [Linsitinib] (partner 1 µM)
Outline: (§1)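 After 5 days of treatment, lung cancer cells in 1536-well plates were fixed and stained in a single step (final 0.05% Triton X-100, 1% formaldehyde, 1 ug/ml Hoechst) and their nuclei counted on 4× images. Treatment had been applied by pin tool the day after seeding as one drug alone or as a fixed anchor-drug dose with five library-drug doses (not always all listed) in √10 steps. Relative viability is the nuclei count of treated wells divided by that of vehicle wells, and values are medians of duplicate plates.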

Bexarotene + Pictilisib = compound: C=C(c1ccc(C(=O)O)cc1)c1cc2c(cc1C)C(C)(C)CCC2(C)C [Bexarotene] + CS(=O)(=O)N1CCN(Cc2cc3nc(-c4cccc5[nH]ncc45)nc(N4CCOCC4)c3s2)CC1 [Pictilisib] (partner 1 µM)
Outline: as §1

Bexarotene + Alpelisib = compound: C=C(c1ccc(C(=O)O)cc1)c1cc2c(cc1C)C(C)(C)CCC2(C)C [Bexarotene] + Cc1nc(NC(=O)N2CCC[C@H]2C(N)=O)sc1-c1ccnc(C(C)(C)C(F)(F)F)c1 [Alpelisib] (partner 2 µM)
Outline: as §1

Bexarotene + Decitabine = compound: C=C(c1ccc(C(=O)O)cc1)c1cc2c(cc1C)C(C)(C)CCC2(C)C [Bexarotene] + Nc1ncn([C@H]2C[C@H](O)[C@@H](CO)O2)c(=O)n1 [Decitabine] (partner 2 µM)
Outline: as §1

Cell Line	relative viability (Bexarotene + Linsitinib; first compound 0.08 µM)	relative viability (Bexarotene + Linsitinib; first compound 0.253 µM)	relative viability (Bexarotene + Linsitinib; first compound 0.8 µM)	relative viability (Bexarotene + Linsitinib; first compound 2.53 µM)	relative viability (Bexarotene + Linsitinib; first compound 8 µM)	relative viability (Bexarotene + Pictilisib; first compound 0.08 µM)	relative viability (Bexarotene + Pictilisib; first compound 0.253 µM)	relative viability (Bexarotene + Pictilisib; first compound 0.8 µM)	relative viability (Bexarotene + Pictilisib; first compound 2.53 µM)	relative viability (Bexarotene + Pictilisib; first compound 8 µM)	relative viability (Bexarotene + Alpelisib; first compound 0.08 µM)	relative viability (Bexarotene + Alpelisib; first compound 0.253 µM)	relative viability (Bexarotene + Alpelisib; first compound 0.8 µM)	relative viability (Bexarotene + Alpelisib; first compound 2.53 µM)	relative viability (Bexarotene + Alpelisib; first compound 8 µM)	relative viability (Bexarotene + Decitabine; first compound 0.08 µM)	relative viability (Bexarotene + Decitabine; first compound 0.253 µM)	relative viability (Bexarotene + Decitabine; first compound 0.8 µM)	relative viability (Bexarotene + Decitabine; first compound 2.53 µM)	relative viability (Bexarotene + Decitabine; first compound 8 µM)
COR-L 105	0.942	1.29	1.19	1.25	0.747	0.473	0.397	0.331	0.385	0.39	0.928	0.977	1.04	1.14	0.916	0.731	0.704	0.664	0.616	0.578
LK-2	0.513	0.713	0.692	0.705	0.773	0.933	0.711	0.824	0.659	0.785	1.15	1.12	1.12	1.25	1.15	0.387	0.308	0.321	0.35	0.279
NCI-H727	0.286	0.408	0.305	0.311	0.284	0.463	0.36	0.348	0.346	0.355	0.808	0.522	0.503	0.58	0.701	1.02	0.748	0.826	0.847	0.885
RERF-LC-KJ	0.8	0.827	0.755	0.782	0.83	0.492	0.592	0.503	0.387	0.57	0.712	0.784	0.723	0.715	0.77	0.692	0.656	0.682	0.7	0.739
NCI-H2023	0.785	0.911	0.735	0.683	0.625	0.326	0.245	0.241	0.252	0.222	0.622	0.618	0.615	0.548	0.57	0.224	0.218	0.214	0.197	0.205
NCI-H322M	1.08	0.947	0.846	0.92	0.891	0.573	0.408	0.544	0.514	0.502	0.846	0.881	0.809	0.771	0.874	0.68	0.748	0.655	0.678	0.731
NCI-H1666	0.889	0.783	0.844	0.931	0.661	0.256	0.337	0.359	0.58	0.459	1	0.877	0.862	0.897	0.761	0.813	0.696	0.773	0.689	0.693
SW 900																0.463	0.397	0.498	0.448	0.462
NCI-H2087	1.01	0.963	0.89	0.896	0.827	1.03	0.941	0.91	0.786	0.818	1.27	1.11	1.08	0.997	1.05	0.303	0.277	0.242	0.227	0.215
